# Read-outs that look alike come from different tables or passages of the source.
# How the values were obtained:
# [1] = in vivo; set-up: species or system rat; details: for tissue uptake at 0.5 h / tissue uptake at 2 h / tissue uptake at 4 h / Tissue uptake findings (in words) / tissue uptake at 1 h / tissue uptake at 3 h / tissue uptake at 6 h / tissue uptake at 24 h: rat; for tissue uptake at 0.5 h / tissue uptake at 2 h / tissue uptake at 4 h / tissue uptake at 1 h / tissue uptake at 3 h / tissue uptake at 6 h / tissue uptake at 24 h: iv; for tissue uptake at 0.5 h: 30 min; for Tissue uptake findings (in words): in vivo
# Protocol: In animal tissue distribution studies, each rate was given 8.9 μCi (0.15 ml) tracer intravenously. The tumor-bearing rats were killed at 1, 3, 6 and 24 h. […] The amount of DES given should occupy tumor estrogen receptor sites. The methods for inducing tumors in rats was as described by those of skill in the art (radiology). […]
# Female Fisher 344 rats (250-275 g) (Harlan, Inc., Indianapolis, Ind.) were inoculated with mammary tumor cells using the 13762 tumor cell line (s.c. 10^5 cells/rat). After 14 days, a tumor size of 1-2 cm was observed. For ^131 I-ITX studies, five groups of rats (N=3/group) were anesthetized with ketamine (10-15 mg/rat). The trans ^131 I-ITX was given to four of the five groups (8.9 μCi/rat, i.v.) and biodistribution was studied at 1, 3, 6 and 24 h intervals. In blocking studies, the fifth group of rats was given diethylstilbestrol (DES) (1.2 mg/rat) for 1 h, followed by 8.9 μCi of ^131 I-ITX; biodistribution was studied 6 h later. The tissues were collected at different time intervals. The tissues were weighted and counted for radioactivity. The percent of injected dose per gram of tissue weight was calculated. […]
# [2] = system: breast tumors; assay: PET imaging of ER+ breast tumors in patients; format: in vivo, human
# Protocol: This example describes a ligand for imaging ER (+) breast tumors by positron emission tomography (PET) or single photon emission computed tomography (SPECT).
# PET imaging was performed on three breast cancer patients (age 54±3) (ER+) with a positron camera (Positron Corporation, Houston, Tex.). Each patient was positioned supine in the scanner so that the detector rings would span the entire breast cancer region. A 20-min attenuation scan was performed with a 4 mCi [^68 Ge]-ring source prior to [^18 F]FTX. After each patient received 4 mCi of {^18 F]FTX, six consecutive 20 min scans were acquired. Serial transaxial images were performed. The tomograph has a field-of-view of 42 cm on transverse and 12 cm on coronal plans. The axial resolution on the reconstructed plan is 1.2 cm. […] The SUV value is generated using a dedicated computer.
# [3] = system: breast tumors; assay: PET imaging of ER+ breast tumors in patients; format: in vivo, human; details: for SUV in lesion of patients responding poorly to tamoxifen therapy: 4/5 patients
# [4] = system: rabbit uterus; assay: Gamma scintigraphic imaging of estrogen receptor sites in rabbits; format: in vivo; details: for Rabbit uterus uptake after DES block (in words): DES 15 mg iv pretreatment
# Protocol: Gamma scintigraphic images were obtained from GE Starport System (GE Company, Milwaukee, Wis.). […] Each pixel was 14 bits deep. Six New Zealand female rabbits (3-4 Kg B.W.) were administered 300 μCi of [^131 I]iodotamoxifen (iv) and multiple images at 2, 24 and 48 hours were accomplished. To ascertain the radioactivity uptake in uterus is via an ER-mediated process, the rabbits were administered with diethylstilbestrol (15 mg,iv) 1 hour prior to receiving [^131 I]ITX and the images were obtained at 2, 24 and 48 hours.
# [5] = 2 h, pretreated with DES (blocking)
# [6] = kidney, read-out: Kidney uptake
# [7] = muscle, read-out: Muscle uptake
# [8] = uterus, read-out: Uterus uptake
# [9] = 6 h, pretreated with DES (blocking)
structure (smiles),measurement,setting,value
"CCN(CC)CCOc1ccc(/C(=C(/CCC[18F])c2ccccc2)c2ccccc2)cc1 [[^18 F]FTX, (trans)[^18 F]Fluoromethyl-N,N-diethyltamoxifen]",Blood uptake,[1]; [5],0.102 % injected dose/gram tissue
same,Bone uptake,[1]; [5],0.278 % injected dose/gram tissue
same,Kidney uptake,[1]; [5],1.241 % injected dose/gram tissue
same,Liver uptake,[1]; [5],7.242 % injected dose/gram tissue
same,Lung uptake,[1]; [5],2.084 % injected dose/gram tissue
same,Muscle uptake,[1]; [5],0.131 % injected dose/gram tissue
same,Uterus uptake,[1]; [5],0.435 % injected dose/gram tissue
same,Tumor uptake,"[1]; 2 h, pretreated with DES (blocking), 120 min",0.24±0.017 % injected dose/gram tissue
same,Tumor uptake,"[1]; 2 h, pretreated with DES (blocking), listed as [^18 F]FLUOROMETHYL-N,N-DIETHYL-TAMOXIFEN, 120 min",0.244 % injected dose/gram tissue
same,Tumor uptake,"[1]; 2 h, 120 min",0.405 % injected dose/gram tissue
same,tissue uptake at 0.5 h,"[1]; blood, read-out: Blood uptake",0.169 %ID/g
same,tissue uptake at 2 h,"[1]; blood, 2 h, read-out: Blood uptake",0.114 %ID/g
same,tissue uptake at 4 h,"[1]; blood, read-out: Blood uptake",0.069 %ID/g
same,tissue uptake at 0.5 h,"[1]; bone, read-out: Bone uptake",0.264 %ID/g
same,tissue uptake at 2 h,"[1]; bone, 2 h, read-out: Bone uptake",0.482 %ID/g
same,tissue uptake at 4 h,"[1]; bone, read-out: Bone uptake",0.258 %ID/g
same,Tissue uptake findings (in words),[1],increased uptake in the tumor and uterus can be blocked by pretreatment with diethylstilbestrol (DES)
same,tissue uptake at 0.5 h,[1]; [6],1.71 %ID/g
same,tissue uptake at 2 h,"[1]; kidney, 2 h, read-out: Kidney uptake",2.08 %ID/g
same,tissue uptake at 4 h,[1]; [6],0.652 %ID/g
same,tissue uptake at 0.5 h,"[1]; liver, read-out: Liver uptake",6.36 %ID/g
same,tissue uptake at 2 h,"[1]; liver, 2 h, read-out: Liver uptake",6.93 %ID/g
same,tissue uptake at 4 h,"[1]; liver, read-out: Liver uptake",6.5 %ID/g
same,tissue uptake at 0.5 h,"[1]; lung, read-out: Lung uptake",3.82 %ID/g
same,tissue uptake at 2 h,"[1]; lung, 2 h, read-out: Lung uptake",3.5 %ID/g
same,tissue uptake at 4 h,"[1]; lung, read-out: Lung uptake",1.31 %ID/g
same,tissue uptake at 0.5 h,[1]; [7],0.183 %ID/g
same,tissue uptake at 2 h,"[1]; muscle, 2 h, read-out: Muscle uptake",0.234 %ID/g
same,tissue uptake at 4 h,[1]; [7],0.093 %ID/g
same,tissue uptake at 0.5 h,"[1]; tumor, read-out: Tumor uptake",0.256 %ID/g
same,tissue uptake at 2 h,"[1]; tumor, 2 h, read-out: Tumor uptake",0.41 ± 0.07 %ID/g
same,tissue uptake at 4 h,"[1]; tumor, read-out: Tumor uptake",0.284 %ID/g
same,tissue uptake at 0.5 h,[1]; [8],0.536 %ID/g
same,tissue uptake at 4 h,[1]; [8],0.364 %ID/g
same,SUV,"[2]; patient 1, left axilla",0.7
same,SUV,"[2]; patient 2, mediastinum",1.8
same,SUV,"[2]; patient 3, left axilla",2.6
same,SUV,"[2]; patient 3, right axilla",2.2
same,SUV,"[2]; patient 3, right breast",1.6
same,SUV,"[2]; patient 3, spine",3.0
same,SUV of breast tumors,"[2]; three patients, 4 mCi",2-5
same,SUV in tumor of patients responding well to tamoxifen therapy,"[2]; three patients, listed as 18 F-tamoxifen",> 2.4
same,SUV in tumor of patients responding well to tamoxifen therapy,"[2]; three patients, listed as [^18 F]fluorotamoxifen",more than 2.4
same,SUV in lesion of patients responding poorly to tamoxifen therapy,[3]; listed as 18 F-tamoxifen,< 2.0
same,SUV in lesion of patients responding poorly to tamoxifen therapy,[3]; listed as [^18 f]fluorotamoxifen,less than 2.0
same,SUV,"[3]; patient 1, left breast",1.6
same,SUV,"[3]; patient 1, spine",6.2
same,SUV,"[3]; patient 1, sternum",4.2
same,SUV,"[3]; patient 3, left breast",2.6
same,SUV,"[3]; patient 4, right axilla",1.3
same,SUV,"[3]; patient 5, lung",3.3
same,SUV,"[3]; patient 6, left axilla",2.9
same,SUV,"[3]; patient 7, skull",0.9
same,SUV,"[3]; patient 8, neck",2.4
same,SUV,"[3]; patient 9, scapula",1.3
same,SUV,"[3]; patient 10, spine",6.3
CCN(CC)CCOc1ccc(/C(=C(/CCC[131I])c2ccccc2)c2ccccc2)cc1 [^131 I-IODOTAMOXIFEN],Tumor uptake,"[1]; 1 h, 60 min",0.181 % injected dose/gram tissue
same,Tumor uptake,"[1]; 3 h, 180 min",0.229 % injected dose/gram tissue
same,Blood uptake,[1]; [9],0.072 % injected dose/gram tissue
same,Kidney uptake,[1]; [9],1.296 % injected dose/gram tissue
same,Liver uptake,[1]; [9],4.682 % injected dose/gram tissue
same,Lung uptake,[1]; [9],2.173 % injected dose/gram tissue
same,Muscle uptake,[1]; [9],0.172 % injected dose/gram tissue
same,Spleen uptake,[1]; [9],2.366 % injected dose/gram tissue
same,Thyroid uptake,[1]; [9],0.640 % injected dose/gram tissue
same,Uterus uptake,[1]; [9],0.325 % injected dose/gram tissue
same,Tumor uptake,"[1]; 6 h, pretreated with DES (blocking), 360 min",0.217 % injected dose/gram tissue
same,Tumor uptake,"[1]; 6 h, pretreated with DES (blocking), listed as 131 I-TX, 360 min",0.22±0.059 % injected dose/gram tissue
same,Tumor uptake,"[1]; 6 h, pretreated with DES (blocking), listed as [^131 I]ITX, 360 min",0.22±0.044 % injected dose/gram tissue
same,Tumor uptake,"[1]; 6 h, 360 min",0.261 % injected dose/gram tissue
same,Tumor uptake,"[1]; 24 h, 1440 min",0.267 % injected dose/gram tissue
same,Tumor uptake,"[1]; 24 h, listed as 131 I-ITX, 1440 min",0.267±0.0160 % injected dose/gram tissue
same,tissue uptake at 1 h,"[1]; blood, 1 h, read-out: Blood uptake",0.158 %ID/g
same,tissue uptake at 3 h,"[1]; blood, 3 h, read-out: Blood uptake",0.121 %ID/g
same,tissue uptake at 6 h,"[1]; blood, 6 h, read-out: Blood uptake",0.124 %ID/g
same,tissue uptake at 24 h,"[1]; blood, 24 h, read-out: Blood uptake",0.001 %ID/g
same,Tissue uptake findings (in words),[1],both tumor and uterus uptake can be blocked
same,Tissue uptake findings (in words),[1]; listed as 131 I-ITX,both tumor and uterus value were decreased in 6 h blocking group
same,tissue uptake at 1 h,"[1]; kidney, 1 h, read-out: Kidney uptake",1.88 %ID/g
same,tissue uptake at 3 h,"[1]; kidney, 3 h, read-out: Kidney uptake",2.37 %ID/g
same,tissue uptake at 6 h,"[1]; kidney, 6 h, read-out: Kidney uptake",1.36 %ID/g
same,tissue uptake at 24 h,"[1]; kidney, 24 h, read-out: Kidney uptake",0.381 %ID/g
same,tissue uptake at 1 h,"[1]; liver, 1 h, read-out: Liver uptake",5.6 %ID/g
same,tissue uptake at 3 h,"[1]; liver, 3 h, read-out: Liver uptake",6 %ID/g
same,tissue uptake at 6 h,"[1]; liver, 6 h, read-out: Liver uptake",4.63 %ID/g
same,tissue uptake at 24 h,"[1]; liver, 24 h, read-out: Liver uptake",2.47 %ID/g
same,tissue uptake at 1 h,"[1]; lung, 1 h, read-out: Lung uptake",3.95 %ID/g
same,tissue uptake at 3 h,"[1]; lung, 3 h, read-out: Lung uptake",3.71 %ID/g
same,tissue uptake at 6 h,"[1]; lung, 6 h, read-out: Lung uptake",2.84 %ID/g
same,tissue uptake at 24 h,"[1]; lung, 24 h, read-out: Lung uptake",0.512 %ID/g
same,tissue uptake at 1 h,"[1]; muscle, 1 h, read-out: Muscle uptake",0.201 %ID/g
same,tissue uptake at 3 h,"[1]; muscle, 3 h, read-out: Muscle uptake",0.253 %ID/g
same,tissue uptake at 6 h,"[1]; muscle, 6 h, read-out: Muscle uptake",0.204 %ID/g
same,tissue uptake at 24 h,"[1]; muscle, 24 h, read-out: Muscle uptake",0.005 %ID/g
same,tissue uptake at 1 h,"[1]; spleen, 1 h, read-out: Spleen uptake",3.38 %ID/g
same,tissue uptake at 3 h,"[1]; spleen, 3 h, read-out: Spleen uptake",3.31 %ID/g
same,tissue uptake at 6 h,"[1]; spleen, 6 h, read-out: Spleen uptake",2.33 %ID/g
same,tissue uptake at 24 h,"[1]; spleen, 24 h, read-out: Spleen uptake",0.688 %ID/g
same,tissue uptake at 1 h,"[1]; thyroid, 1 h, read-out: Thyroid uptake",0.393 %ID/g
same,tissue uptake at 3 h,"[1]; thyroid, 3 h, read-out: Thyroid uptake",0.748 %ID/g
same,tissue uptake at 6 h,"[1]; thyroid, 6 h, read-out: Thyroid uptake",0.776 %ID/g
same,tissue uptake at 24 h,"[1]; thyroid, 24 h, read-out: Thyroid uptake",0.493 %ID/g
same,tissue uptake at 1 h,"[1]; tumor, 1 h, read-out: Tumor uptake",0.18 ± 0.062 %ID/g
same,tissue uptake at 3 h,"[1]; tumor, 3 h, read-out: Tumor uptake",0.23 ± 0.152 %ID/g
same,tissue uptake at 6 h,"[1]; tumor, 6 h, read-out: Tumor uptake",0.26 ± 0.166 %ID/g
same,tissue uptake at 24 h,"[1]; tumor, 24 h, read-out: Tumor uptake",0.27 ± 0.016 %ID/g
same,tissue uptake at 1 h,"[1]; uterus, 1 h, read-out: Uterus uptake",0.414 %ID/g
same,tissue uptake at 3 h,"[1]; uterus, 3 h, read-out: Uterus uptake",0.546 %ID/g
same,tissue uptake at 6 h,"[1]; uterus, 6 h, read-out: Uterus uptake",0.408 %ID/g
same,tissue uptake at 24 h,"[1]; uterus, 24 h, read-out: Uterus uptake",0.151 %ID/g
same,uterus:muscle uptake ratio,[4]; 24 h postinjection,4.6
same,Rabbit uterus uptake after DES block (in words),[4]; listed as 131 l-iodotamoxifen,the uterus showed decreased uptake
same,Rabbit uterus uptake after DES block (in words),[4]; listed as [^131 I]ITX,rabbit uterus uptake can be blocked by pretreatment with DES
same,Rabbit uterus uptake after DES block (in words),[4]; listed as [^131 ]ITX,increased uptake can be blocked by pretreatment of the rabbit with DES

# Source: US6096874A (Board of Regents, the University of Texas System, priority 1995, dated 2000)
